In publication PMC7583056, “Synthesis, Characterisation and In Vitro Anticancer Activity of Catalytically Active Indole-Based Half-Sandwich Complexes” (Molecules, 2020):

Assays:
[1] = Transfer hydrogenation: reduction of NAD+ with formate as hydride donor (1H-NMR); conditions: for TOF (turnover frequency) for the reduction of NAD+: NAD+ 9 mol. equiv., formate 28 mol. equiv., pH* 7.4 ± 0.2, 310 K, complex 1.1 mM in MeOD/D2O (1:1 v/v)
Procedure: The ability of complexes 1–4 to oxidise NADH was investigated. The ^1H-NMR spectra show an increase of the NAD^+ signals over time (Figure 3). However, the reaction is very slow and after 8 h only around 10% of NADH is converted to NAD^+. […] The possibility of using compounds 1–4 as a transfer hydrogenation catalyst to reduce NAD^+ was investigated (Materials and Methods section). Compounds 1–4 reduced NAD^+ with turnover frequencies (TOF) between 6 and 15 h^−1 (Table 1), which is within the range of previously reported compounds [51, 53, 74, 75, 76]. Remarkably, under the conditions here reported (MeOD/D2O 1:1 v/v, 310 K, pH* 7.4 ± 0.2), the iridium complex 2 reduced nine molar equivalents of NAD^+ within the initial 10 min. However, no TOF could be calculated for this compound, owing to the speed of the reaction.
Transfer hydrogenation reactions with complexes 1–4, formate, and NAD^+ were studied by mixing a solution of the corresponding complex (2.2 mM, MeOD), sodium formate (137 mM, D2O) and NAD^+ (44 mM, D2O). Final concentrations of 1.1 mM for the complex, 10 mM for NAD^+ and 30 mM for NaHCO2 were obtained (molar ratio 1:9:28). The pH of the mixture was adjusted to 7.4 ± 0.2. ^1H-NMR spectra were recorded at 310 K every 5 min until completion of the reaction.
Molar ratios of NAD^+ and NADH were determined by integrating the area under the signals associated with NAD^+ (9.33 ppm) and 1,4-NADH (6.96 ppm). The turnover number (TON) for the reaction was calculated as follows: (1) TONI6.96/I6.96+[…][NAD^+]0/[Catalyst] where In is the integral of the signal at n ppm and [NAD^+]0 is the concentration of NAD^+ at the start of the reaction.

9-ethylguanine (9-EtG) = assay: Binding constant towards 9-EtG by 1H-NMR titration; conditions: complex 1.1 mM in MeOD/D2O (1:1 v/v), non-linear fit
Procedure: Binding constant of complexes 1, 3 and 4 with 9-EtG were calculated using the non-linear ThordarsonFittingProgram (Table 1). The binding constant for complex 2 was not calculated due to solubility issues. The magnitude of the binding constants (10^3–10^4 M^−1) is low compared to the usually observed complexation constants in coordination chemistry (>>10^6 M^−1), and is in the range of binding constants observed in host-guest inorganic chemistry (e.g., via non-covalent interactions between a metalla-cage and an aromatic planar guest molecule).
The reactions of complexes 1–4 with 9-ethylguanine (9-EtG) and 9-methyladenine (9-MetA) were studied. MeOD solutions of complexes 1–4 (2.2 mM) were mixed with a solution of the corresponding nucleobase in D2O (4.4 mM) and the pH adjusted to 7.4 ± 0.2. Final concentrations of 1.1 mM for the complex and 2.2 mM for the nucleobase were obtained. ^1H-NMR spectra of the resulting mixture were recorded at t ≤ 10 min, 5 h and 24 h in MeOD/D2O (1:1 v/v).
A titration using 9-EtG at increasing concentrations was performed and the resulting samples were analysed using ^1H-NMR spectroscopy. Binding constants were calculated using the non-linear ThordarsonFittingProgram by plotting the chemical shift of the complex versus the concentration of 9-EtG. Alternatively, binding constant for complexes 3 and 4 was obtained by plotting the ratio of 9-EtG adduct/complex against the concentration of 9-EtG.

Solubility as observed = type: physicochemical; conditions: MeOD/D2O 1:1 v/v, 1.1 mM
Procedure: Owing to the limited aqueous solubility of the complexes, all the reactivity experiments were performed using a mixture MeOD/D2O (1:1 v/v) as a solvent. The stability of complexes 1–4 in MeOD/D2O was studied via ^1H-NMR spectroscopy over a period of 24 h. […] The stability of complexes 1–4 in dimethylsulfoxide (DMSO;1.1 mM) was also studied by ^1H-NMR spectroscopy over a period of 24 h (Figure S1). […] The ligand ind-py is also stable in MeOD/D2O over 24 h (Figure S1E).

SMILES	TOF (printed in Figure 3C) ([1]; 28 mol. equiv. formate, 9 mol. equiv. NAD+, MeOD/D2O 1/1 v/v, pH 7.4, 310 K, in 1/h)	TOF (turnover frequency) for the reduction of NAD+ [1] [h⁻¹]	K9-EtG (binding constant towards 9-EtG) (9-ethylguanine (9-EtG)) [M⁻¹]	Solubility in MeOD/D2O (in words) (Solubility as observed)	Time to reduce nine molar equivalents of NAD+ ([1]; MeOD/D2O 1:1 v/v, 310 K, pH* 7.4 ± 0.2, formate 28 mol. equiv.) [min]
Cc1c(C)c(C)[c-](C)c1C.[Cl-].[Rh+3].c1ccc(-c2cc3ccccc3[n-]2)nc1 [complex 1, [Cp*Rh(ind-py)Cl]]	14.63 ± 0.78	14.6 ± 0.7	25600		
Cc1c(C)c(C)[c-](C)c1C.[Cl-].[Ir+3].c1ccc(-c2cc3ccccc3[n-]2)nc1 [complex 2, [Cp*Ir(ind-py)Cl]]				poor solubility	≤ 10
Cc1ccc(C(C)C)cc1.[Cl-].[Ru+2].c1ccc(-c2cc3ccccc3[n-]2)nc1 [complex 3, [(p-cym)Ru(ind-py)Cl]]		7.95 ± 0.81	71600		
Cc1ccc(C(C)C)cc1.[Cl-].[Os+2].c1ccc(-c2cc3ccccc3[n-]2)nc1 [complex 4, [(p-cym)Os(ind-py)Cl]]		5.74 ± 0.35	95400		
